Reference: US8143226B2, “Tyrosine kinase receptor antagonists and methods of treatment for breast cancer” (The Regents of the University of California, priority 2005, dated 2012)

Columns and labels:
Format in all cases: cell-based
[1] = molecular target: IGF-1R (Homo sapiens, UniProt P08069); assay: IGF-1R phosphorylation ELISA in MCF-7/HER2-18 cells; parameters: endogenous in cells; host or cells: MCF-7/HER2-18; details: 3 nM IGF-I 10 min
Method: RTK inhibitors were dissolved in DMSO and diluted with culture medium before being added to cells for 1.5 hour at 37° C. The final concentration of DMSO during the incubation was 0.3% . For some studies, cells were also stimulated with 3 nM IGF-I for 10 minutes at 37° C. Reactions were terminated by rapidly aspirating medium and washing cells three times with ice cold PBS. Cells were harvested and solubilized in 50 mM HEPES, 150 mM NaCl, 1% Triton X-100, 1 mM PMSF, and 2 mM vanadate for 1 hour at 4° C. Protein concentrations were determined by BCA assay (Pierce, Rockford, Ill.). […] Briefly, 10 μg lysate protein were added to triplicate wells in a 96-well plate coated with monoclonal antibody to the IGF-IR (IR3; 2 μg/ml), and incubated for 18 hours at 4° C. Plates were washed five times and then HRP-conjugated anti-phosphotyrosine antibody (0.3 μg/ml), diluted in Solution B (50 mM HEPES, pH 7.6, 150 mM NaCl, 0.05% Tween-20, 1 mM PMSF, 2 mM vanadate and 1 mg/ml bacitracin), was added for two hours at 22° C. Plates were washed five times prior to color development with TMB substrate, which was terminated with 1.0 M H3PO4. Values for receptor phosphorylation were determined by measuring absorbance at 450 nm.

[2] = tested on: MCF-7/neo cells; assay: Tamoxifen and/or NDGA growth inhibition of MCF-7/neo cells (CyQuant); details: Homo sapiens, MCF7, 144 h; MCF-7/neo cells, tamoxifen 100 nM, 6 days
Method: (§1) Cells were estrogen-starved for three days in DMEM containing 10% charcoal-[…]-stripped FCS (CDSS) prior to their plating in 96 well plates. Cells were plated in 100 μl of the same media, allowed to adhere overnight, and then were switched to DMEM+10% CDSS supplemented with 100 pM estrogen. […] The media and inhibitors were refreshed on day 3, the cultures were harvested on day 6, and a CyQuant assay was performed as described above.

[3] = tested on: MCF-7/HER2-18 cells; assay: Tamoxifen and/or NDGA growth inhibition of MCF-7/HER2-18 cells (CyQuant); details: Homo sapiens, 144 h; MCF-7/HER2-18 cells, tamoxifen 100 nM, 6 days
Method: as §1

Chain of IGF-1R (P08069 31-1367): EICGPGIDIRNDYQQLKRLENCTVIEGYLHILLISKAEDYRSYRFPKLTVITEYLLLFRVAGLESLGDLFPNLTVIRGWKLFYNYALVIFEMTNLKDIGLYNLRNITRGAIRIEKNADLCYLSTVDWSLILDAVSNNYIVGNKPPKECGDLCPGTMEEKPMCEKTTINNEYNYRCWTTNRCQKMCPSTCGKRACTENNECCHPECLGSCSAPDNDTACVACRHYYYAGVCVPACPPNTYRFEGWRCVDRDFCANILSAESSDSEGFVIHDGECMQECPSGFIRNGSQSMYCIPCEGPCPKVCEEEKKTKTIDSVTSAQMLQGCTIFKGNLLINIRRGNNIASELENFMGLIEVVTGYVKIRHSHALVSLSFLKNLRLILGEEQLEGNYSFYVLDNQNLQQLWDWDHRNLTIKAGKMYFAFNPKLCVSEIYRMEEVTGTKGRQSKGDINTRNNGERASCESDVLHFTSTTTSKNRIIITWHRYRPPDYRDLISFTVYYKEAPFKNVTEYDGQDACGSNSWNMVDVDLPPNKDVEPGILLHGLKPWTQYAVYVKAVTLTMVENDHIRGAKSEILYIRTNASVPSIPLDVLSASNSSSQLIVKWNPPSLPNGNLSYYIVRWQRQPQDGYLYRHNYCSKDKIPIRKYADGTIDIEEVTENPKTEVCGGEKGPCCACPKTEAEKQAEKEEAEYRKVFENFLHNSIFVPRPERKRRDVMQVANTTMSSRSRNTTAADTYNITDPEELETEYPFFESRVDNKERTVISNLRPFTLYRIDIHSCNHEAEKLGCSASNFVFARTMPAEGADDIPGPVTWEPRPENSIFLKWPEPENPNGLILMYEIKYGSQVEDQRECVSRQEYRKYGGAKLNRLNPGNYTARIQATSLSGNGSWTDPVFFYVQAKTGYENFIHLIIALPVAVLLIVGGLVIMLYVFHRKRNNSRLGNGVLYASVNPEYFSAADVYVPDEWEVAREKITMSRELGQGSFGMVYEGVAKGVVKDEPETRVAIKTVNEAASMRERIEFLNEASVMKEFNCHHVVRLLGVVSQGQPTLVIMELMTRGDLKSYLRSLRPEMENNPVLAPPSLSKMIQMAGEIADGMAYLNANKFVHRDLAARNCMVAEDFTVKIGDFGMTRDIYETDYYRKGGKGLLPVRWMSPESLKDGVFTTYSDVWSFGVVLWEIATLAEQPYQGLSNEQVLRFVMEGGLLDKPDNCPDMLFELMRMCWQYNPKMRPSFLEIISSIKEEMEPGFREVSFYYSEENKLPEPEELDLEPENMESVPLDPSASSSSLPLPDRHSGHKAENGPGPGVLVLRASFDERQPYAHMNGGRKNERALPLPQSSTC

**Q.** Which “IGF-1 stimulated phosphorylation of the IGF-1R” value [1] does the source give for `COc1cc2ncnc(Nc3ccc(F)c(Cl)c3)c2cc1OCCCN1CCOCC1` [gefitinib, Gefitinib, reference compound] here?
**A.** only a weak inhibitory effect

**Q.** `CC/C(=C(\c1ccccc1)c1ccc(OCCN(C)C)cc1)c1ccccc1` [tamoxifen, reference compound] was tested. Which inhibition at 0.1 µM [2] did it give?
**A.** > 50%

**Q.** What about the inhibition at 0.1 µM [3] of the same compound?
**A.** 24%
